Test results reported in patent US20080102497A1, “ENZYMATIC HYDROLYSIS OF STARCH” (priority 2006, published 2008).
“And” between values parts separate entries of the source, which are not always exact repeats. Equal entries are not always repeated. Where two headings read alike, the source gives them in different places.

Assays:
[1] = molecular target: α-amylase from Bacillus licheniformis (Bacillus licheniformis, UniProt P06278); experiment: hydrolysis of cooked dent corn starch with other additives; format: biochemical; conditions: for effect on rate of enzymatic hydrolysis (in words): 10 mM additive, cooked dent corn starch; for Relative Activity: cooked dent corn starch 0.5%, pH 5.2, 37° C., 10 min
Chain of α-amylase from Bacillus licheniformis (P06278 30-512): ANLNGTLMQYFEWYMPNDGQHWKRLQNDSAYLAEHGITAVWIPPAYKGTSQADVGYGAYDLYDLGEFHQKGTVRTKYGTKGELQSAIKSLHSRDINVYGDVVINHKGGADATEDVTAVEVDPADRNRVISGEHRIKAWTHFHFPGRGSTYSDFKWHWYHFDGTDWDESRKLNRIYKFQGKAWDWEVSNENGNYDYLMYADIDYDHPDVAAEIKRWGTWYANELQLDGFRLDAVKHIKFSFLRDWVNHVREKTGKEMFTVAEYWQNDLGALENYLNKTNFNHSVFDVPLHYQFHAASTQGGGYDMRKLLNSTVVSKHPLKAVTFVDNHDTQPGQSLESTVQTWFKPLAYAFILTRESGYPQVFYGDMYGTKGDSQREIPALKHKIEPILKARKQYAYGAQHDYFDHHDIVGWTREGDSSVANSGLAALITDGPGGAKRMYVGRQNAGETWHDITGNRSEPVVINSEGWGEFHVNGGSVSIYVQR
Experimental: The α-amylase from Bacillus licheniformis was added to a sodium acetate buffer solution, pH 5.2, […], di-sodium EDTA, NH4^+, Sr^++, Na^+, K^+, Al^+++, or Ba^++ and 0.5% by weight cooked dent corn starch. The separate reaction mixtures were incubated at 37° C. for 10 minutes. The control reaction mixture contained enzyme, buffer, and starch but no additive. The starch hydrolysis reaction was stopped by combining the reaction mixture with a solution containing DNSA and heating for 30 min at 85° C. The absorbance of the control and test samples was measured at 562 nm to monitor the amount of reducing sugar in each sample.

[2] = molecular target: β-amylase from barley (Hordeum vulgare, UniProt P16098); experiment: as above; format: biochemical; conditions: for effect on rate of enzymatic hydrolysis (in words): 10 mM additive, cooked dent corn starch; for Relative Activity: cooked dent corn starch 0.5%, pH 5.2, 37° C., 10 min
Chain of β-amylase from barley (P16098 whole entry): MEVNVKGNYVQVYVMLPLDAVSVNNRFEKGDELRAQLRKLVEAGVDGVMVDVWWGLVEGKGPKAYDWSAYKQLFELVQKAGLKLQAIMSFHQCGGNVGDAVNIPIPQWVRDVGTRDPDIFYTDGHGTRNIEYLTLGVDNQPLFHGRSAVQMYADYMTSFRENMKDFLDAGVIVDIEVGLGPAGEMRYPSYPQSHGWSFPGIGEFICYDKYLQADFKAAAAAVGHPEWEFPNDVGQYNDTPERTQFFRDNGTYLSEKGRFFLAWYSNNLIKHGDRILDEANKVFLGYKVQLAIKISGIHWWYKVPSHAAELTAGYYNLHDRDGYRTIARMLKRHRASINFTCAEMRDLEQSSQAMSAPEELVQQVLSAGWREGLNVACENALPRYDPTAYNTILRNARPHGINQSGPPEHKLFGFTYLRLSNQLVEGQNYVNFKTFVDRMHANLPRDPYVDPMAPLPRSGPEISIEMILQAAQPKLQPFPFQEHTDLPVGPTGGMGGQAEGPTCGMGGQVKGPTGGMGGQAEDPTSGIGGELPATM
Experimental: […] The separate reaction mixtures were incubated at 37° C. for 10 minutes. The control reaction mixture contained enzyme, buffer, and starch but no additive. The starch hydrolysis reaction was stopped by combining the reaction mixture with a solution containing DNSA and heating for 30 min at 85° C. The absorbance of the control and test samples was measured at […] to monitor the amount of reducing sugar in each sample.

[3] = molecular target: glucoamylase from Aspergillus Niger (Aspergillus niger, UniProt P69328); experiment: as above; format: biochemical; conditions: for effect on rate of enzymatic hydrolysis (in words): 10 mM additive, cooked dent corn starch; for Relative Activity: cooked dent corn starch 0.5%, pH 5.2, 37° C., 10 min
Chain of glucoamylase from Aspergillus Niger (P69328 25-640): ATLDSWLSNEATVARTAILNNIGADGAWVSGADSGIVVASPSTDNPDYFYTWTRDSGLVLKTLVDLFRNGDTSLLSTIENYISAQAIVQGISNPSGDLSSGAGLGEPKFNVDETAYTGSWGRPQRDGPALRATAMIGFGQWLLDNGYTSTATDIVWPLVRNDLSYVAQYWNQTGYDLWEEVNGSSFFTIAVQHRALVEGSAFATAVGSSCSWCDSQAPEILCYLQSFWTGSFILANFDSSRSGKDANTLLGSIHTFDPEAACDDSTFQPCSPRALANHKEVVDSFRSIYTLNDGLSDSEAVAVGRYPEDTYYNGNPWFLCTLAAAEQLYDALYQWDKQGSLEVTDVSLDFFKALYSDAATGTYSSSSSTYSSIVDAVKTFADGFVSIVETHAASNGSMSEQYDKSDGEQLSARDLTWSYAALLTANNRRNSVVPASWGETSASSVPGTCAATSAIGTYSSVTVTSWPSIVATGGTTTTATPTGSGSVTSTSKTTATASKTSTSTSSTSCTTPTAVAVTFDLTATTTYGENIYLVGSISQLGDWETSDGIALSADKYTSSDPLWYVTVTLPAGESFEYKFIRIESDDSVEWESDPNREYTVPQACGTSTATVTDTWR
Experimental: The glucoamylase from Aspergillus Niger was added to a sodium acetate buffer solution, pH 5.2, comprising no metal or 10 mM Fe^++, Mg^++, Li^+, Zn^++, Cu^++, Ca^++, di-sodium EDTA, NH4^+, Sr^++, Na^+, K^+, Al^+++, or Ba^++ and 0.5% by weight cooked dent corn starch. The separate reaction mixtures were incubated at 37° C. for 10 minutes. The control reaction mixture contained enzyme, buffer, and starch but no additive. The starch hydrolysis reaction was stopped by combining the reaction mixture with a solution containing DNSA and heating for 30 min at 85° C. The absorbance of the control and test samples was measured at 562 nm to monitor the amount of reducing sugar in each sample.

[4] = test system: enzyme mixture of purified glucoamylase from mushroom and purified α-amylase from barley; experiment: hydrolysis of raw corn starch by enzyme mixture, reducing sugar by DNSA; format: biochemical; conditions: for Relative Activity: 10 mM additive, raw corn starch, pH 5.3, 37° C., 20 min; for effect on hydrolysis of raw corn starch (in words): summary of Table 2
Experimental: Enzyme mixture was also pre-incubated with 10 mM Fe^++, Cu^++, Ca^++, Mg^++, or disodium ethylenediamine-tetraacetic acid (EDTA). Thereafter, 40 μl of each pre-incubation solution was added to 15 mg raw corn starch, and the reaction mixture incubated at 37° C. for 20 minutes. The control reaction mixture contained substrate, enzyme, and buffer but no additional metal ions. The starch hydrolysis reaction was stopped by combining the reaction mixture with a solution containing 3,5 dinitrosalicylic acid (DNSA) and heating for 30 min at 85° C. The absorbance of the control and test samples was measured at 562 nm to monitor the amount of reducing sugar in each sample.

[5] = test system: glucoamylase from Rhizopus sp.; conditions: 1.0 mM manganese salt, raw corn starch, pH 5.3, 37° C.
Experimental: An enzyme solution of the glucoamylase from Rhizopus sp. Was prepared in a sodium acetate buffer, pH 5.3, comprising 1.0 mM manganese chloride, manganese acetate, or manganese sulfate. Thereafter, 40 μl of each enzyme solution was added to 15 mg raw corn starch and the reaction mixtures incubated at 37° C. for 5, 10, 15, 20, or 25 minutes. The starch hydrolysis reaction was stopped by combining the reaction mixture with a solution containing DNSA and heating for 30 min at 85° C. The absorbance of the control and test samples was measured at 562 nm to monitor the amount of reducing sugar in each sample.

| Compound | effect on rate of enzymatic hydrolysis (in words) [1] | Relative Activity ([1]; Additive (10 mM)) | effect on rate of enzymatic hydrolysis (in words) [2] | Relative Activity ([2]; Additive (10 mM)) | effect on rate of enzymatic hydrolysis (in words) [3] | Relative Activity ([3]; Additive (10 mM)) | Relative Activity [4] | effect on hydrolysis of raw corn starch (in words) [4] | Relative Activity ([1]; additive 1 mM) | Relative Activity ([2]; additive 1 mM) | Relative Activity ([3]; additive 1 mM) | % Conversion ([5]; 5 minutes) | % Conversion ([5]; 10 minutes) | % Conversion ([5]; 15 minutes) | % Conversion ([5]; 20 minutes) | % Conversion ([5]; 25 minutes) | % Conversion ([5]; time 0) |
| --- | --- | --- | --- | --- | --- | --- | --- | --- | --- | --- | --- | --- | --- | --- | --- | --- | --- |
| [Al+3] [Al^+++] | does not increase the enzymatic rate of hydrolysis | 95.1% | do not significantly increase the rate of enzymatic hydrolysis | 77.5% | do not significantly increase the rate of enzymatic hydrolysis | 96.2% |  |  |  |  |  |  |  |  |  |  |  |
| [Ba+2] [Ba^++, barium ion] | does not increase the enzymatic rate of hydrolysis | 98.1% | increase the rate of enzymatic hydrolysis | 114.6% | do not significantly increase the rate of enzymatic hydrolysis | 99.3% |  |  |  |  |  |  |  |  |  |  |  |
| [Ca+2] [Ca^++, calcium ions] |  | 119.1% and 94.8% and 99.4% and 90.0% | increase the rate of enzymatic hydrolysis | 114.1% and 127.2% and 121.2% | increase the rate of enzymatic hydrolysis | 103.8% and 104.4% and 97.4% | 97.3% | do not have a similar effect | 83.6% | 111.8% and 105.8% and 105.0% | 108.0% |  |  |  |  |  |  |
| [Cu+2] [Cu^++] | does not increase the enzymatic rate of hydrolysis | 30.0% | do not significantly increase the rate of enzymatic hydrolysis | 6.7% | do not significantly increase the rate of enzymatic hydrolysis | 33.9% | 47.5% | do not have a similar effect |  |  |  |  |  |  |  |  |  |
| O=C(O)CN(CCN(CC(=O)O)CC(=O)O)CC(=O)O.[Na].[Na] [Disodium EDTA, disodium ethylenediamine-tetraacetic acid] | does not increase the enzymatic rate of hydrolysis | 103.8% | do not significantly increase the rate of enzymatic hydrolysis | 100.4% | do not significantly increase the rate of enzymatic hydrolysis | 57.6% | 88.8% | do not have a similar effect |  |  |  |  |  |  |  |  |  |
| [Fe+2] [Fe^++] | does not increase the enzymatic rate of hydrolysis | 101.9% | do not significantly increase the rate of enzymatic hydrolysis | 88.7% | do not significantly increase the rate of enzymatic hydrolysis | 98.3% | 74.0% | do not have a similar effect |  |  |  |  |  |  |  |  |  |
| [K+] [K^+, potassium ion] | does not increase the enzymatic rate of hydrolysis | 82.8% | do not significantly increase the rate of enzymatic hydrolysis | 101.1% | increase the rate of enzymatic hydrolysis | 113.3% |  |  |  |  |  |  |  |  |  |  |  |
| [Li+] [Li^+, lithium ion] | does not increase the enzymatic rate of hydrolysis | 89.2% | do not significantly increase the rate of enzymatic hydrolysis | 101.6% | increase the rate of enzymatic hydrolysis | 118.1% |  |  |  |  |  |  |  |  |  |  |  |
| [Mg+2] [Mg^++, magnesium ion] | does not increase the enzymatic rate of hydrolysis | 83.8% | increase the rate of enzymatic hydrolysis | 110.8% | do not significantly increase the rate of enzymatic hydrolysis | 96.0% | 92.4% | do not have a similar effect |  |  |  |  |  |  |  |  |  |
| O=S(=O)([O-])[O-].[Mn+2] [MnSO4, manganese sulfate] |  |  |  |  |  |  |  |  |  |  |  | 0.50% | 0.87% | 1.12% | 1.30% | 1.58% | 0% |
| N [NH4^+] | does not increase the enzymatic rate of hydrolysis | 86.4% | do not significantly increase the rate of enzymatic hydrolysis | 95.1% | do not significantly increase the rate of enzymatic hydrolysis | 98.3% |  |  |  |  |  |  |  |  |  |  |  |
| [Na+] [Na^+] | does not increase the enzymatic rate of hydrolysis | 84.2% | do not significantly increase the rate of enzymatic hydrolysis | 95.1% | do not significantly increase the rate of enzymatic hydrolysis | 97.3% |  |  |  |  |  |  |  |  |  |  |  |
| [Sr+2] [Sr^++, strontium ion] | does not increase the enzymatic rate of hydrolysis | 87.2% | increase the rate of enzymatic hydrolysis | 114.1% | do not significantly increase the rate of enzymatic hydrolysis | 93.8% |  |  |  |  |  |  |  |  |  |  |  |
| [Zn+2] [Zn^++] | does not increase the enzymatic rate of hydrolysis | 100.2% | do not significantly increase the rate of enzymatic hydrolysis | 70.6% | do not significantly increase the rate of enzymatic hydrolysis | 57.3% |  |  |  |  |  |  |  |  |  |  |  |
| manganese acetate [MnOAc] |  |  |  |  |  |  |  |  |  |  |  | 0.46% | 0.74% | 1.04% | 1.28% | 1.50% | 0% |
| manganese chloride [MnCl2] |  |  |  |  |  |  |  |  |  |  |  | 0.44% | 0.74% | 1.01% | 1.22% | 1.70% | 0% |
